{"source": "paper PMC8947439", "about": "“Antimicrobial Properties of a Peptide Derived from the Male Fertility Factor kl2 Protein of Drosophila melanogaster” (Current Issues in Molecular Biology, 2022)", "key": {"B. subtilis ATCC 9372": {"system": "B. subtilis ATCC 9372", "format": "cell-based, Bacillus subtilis", "experimental": "(§1) Bacteria were grown in brain heart infusion (BHI) medium broth at 37 °C. For the microdilution assay (MDA) and minimal inhibitory concentration (MIC) assay, bacteria in the mid-logarithmic phase were harvested and diluted to 4 × 10^5 CFU/mL with Dulbecco’s PBS. Bacteria were incubated with a series of 2-fold dilutions of indicated peptides or PBS for 2 h. The number of viable bacteria were enumerated by counting the colony-forming units (CFU). The MIC was defined as the lowest antimicrobial concentration which prevents the visible growth of bacteria."}, "E. coli HB101 [1]": {"system": "E. coli HB101", "format": "cell-based, Escherichia coli", "details": "HB101, 2 h", "experimental": "as §1"}, "S. aureus 8325-4": {"system": "S. aureus 8325-4", "assay": "microdilution assay (MDA), viable counts (CFU)", "format": "cell-based, Staphylococcus aureus", "details": "peptide 100 μM, 2 h, 4 × 10^5 CFU/mL in Dulbecco's PBS, CFU counting, N = 3", "experimental": "as §1"}, "E. coli HB101 [2]": {"system": "E. coli HB101", "assay": "microdilution assay (MDA), viable counts (CFU)", "format": "cell-based, Escherichia coli", "details": "peptide 100 μM, 2 h, 4 × 10^5 CFU/mL in Dulbecco's PBS, CFU counting, N = 3", "experimental": "as §1"}}, "note": "Residues, ends and D or L forms follow the SMILES beside them.", "data": [{"compound": "CC[C@H](C)[C@H](NC(=O)[C@H](CC(C)C)NC(=O)[C@H](C)NC(=O)[C@H](CCCNC(=N)N)NC(=O)[C@H](Cc1ccccc1)NC(=O)[C@H](CC(C)C)NC(=O)[C@H](CCCCN)NC(=O)[C@@H](N)CCCNC(=N)N)C(=O)N[C@@H](CCC(N)=O)C(=O)N[C@@H](C)C(=O)N[C@@H](CS)C(=O)N[C@@H](CC(=O)O)C(=O)N[C@@H](CCCNC(=N)N)C(=O)N[C@@H](CCCCN)C(=O)O", "note": "[MFF-p1] (H-RKLFRALIQACDRK-OH)", "values": [{"measurement": "percent of killing", "setting": "B. subtilis ATCC 9372; ATCC 9372, 2 h, 100 μM", "result": "around 90%"}, {"measurement": "MIC", "setting": "E. coli HB101 [1]", "result": "6 to 12.5", "unit": "µM"}]}, {"compound": "LKDVFRDFIVVCQK [Z-p1, peptide that is a part of the Zizimin protein of Drosophila melanogaster]", "values": [{"measurement": "antimicrobial activity, inhibition of viable counts", "setting": "S. aureus 8325-4", "result": "did not demonstrate antimicrobial activity"}, {"measurement": "antimicrobial activity, inhibition of viable counts", "setting": "B. subtilis ATCC 9372; peptide 100 μM, 2 h, 4 × 10^5 CFU/mL in Dulbecco's PBS, CFU counting, N = 3", "result": "did not demonstrate antimicrobial activity"}, {"measurement": "antimicrobial activity, inhibition of viable counts", "setting": "E. coli HB101 [2]", "result": "did not demonstrate antimicrobial activity"}]}]}
